Laboratory results taken from patent publication US9108920B2, “Diazeniumdiolate heterocyclic derivatives” (Merck Sharp & Dohme Corp., priority 2010, dated 2015).

Tested on: Male beagle dogs
Experiment: canine telemetry protocol, blood pressure reduction efficacy
Type: in vivo
Conditions: change from baseline, 3 mg/kg oral gavage; for ΔPP (mm Hg) 1-6 h / ΔPP (mm Hg) 6-12 h / ΔPP (mm Hg) 12-18 h: pulse pressure; for ΔSBP (mm Hg) 1-6 h / ΔSBP (mm Hg) 6-12 h / ΔSBP (mm Hg) 12-18 h: systolic blood pressure
Procedure: Compounds of the invention were evaluated for blood pressure reduction efficacy using the following canine telemetry protocol described below.
Male beagle dogs (approximately 1-3 years old) with a body weight of between 10 and 16 kg were surgically implanted with DSI radiotelemetry devices (model: TL11M2-D70-PCT). Briefly, under an inhalant anesthesia, isoflurane/oxygen mixture (1-3.5%/to effect), the body of the telemetry device was positioned and secured intra-abdominally. Subsequently, the arterial catheter of the telemetry device was passed subcutaneously to the inguinal area and introduced into the femoral artery and advanced to the level of the descending aorta. The catheter was secured with 2-0 silk ligatures. The muscle and underlying fascia was closed over the catheter using absorbable suture and the skin was closed using non-absorbable suture. The animals were allowed a minimum recovery period of 2 weeks between surgery and the evaluation of test compounds.
Compound evaluation consisted of a 3 day paradigm at a 3 mg/kg dose. On the first day, no compounds were administered during a 24 hour period of baseline data collection. Blood pressure and heart rate data were collected continuously for one minute periods at 10 minute intervals. On the days of compound administration half the animals received test article with the other half receiving the vehicle used for compound formulation. All test materials were administered by oral gavage in a volume of 1 mL/kg. Data are expressed either as raw values (mm Hg or beats per minute) or as the change from baseline (average value for about 12 hours in low activity period prior to dosing).

Row | Molecule | ΔPP (mm Hg) 1-6 h [mm Hg] | ΔPP (mm Hg) 6-12 h [mm Hg] | ΔPP (mm Hg) 12-18 h [mm Hg] | ΔSBP (mm Hg) 1-6 h [mm Hg] | ΔSBP (mm Hg) 6-12 h [mm Hg] | ΔSBP (mm Hg) 12-18 h [mm Hg]
1 | CN(/[N+]([O-])=N/O[C@@H]1CCN(C(=O)OC(C)(C)C)C1)C(C)(C)C [Example 1, O^2-[(3R)-1-(tert-butoxycarbonyl)pyrrolidin-3-yl]1-(N-tert-butyl-N-methylamino)diazen-1-ium-1,2-diolate] | −16 | −17 | −15 | −16 | −15 | −11
2 | O^2-[(3R)-1-(3-methoxyphenyl)-2-oxopyrrolidin-3-yl]1-(N-tert-butyl-N-methylamino)diazen-1-ium-1,2-diolate [Example 64] | −12 | −15 | −13 | −13 | −12 | −11
3 | CCN(/[N+]([O-])=N/O[C@@H]1CCN(CC(F)(F)F)C1)C(C)(C)C [Example 32, O^2-[(3R)-1-(2,2,2-trifluoroethyl)pyrrolidin-3-yl]-1-(N-tert-butyl-N-ethylamino)diazen-1-ium-1,2-diolate] | −23 | −15 | −10 | −32 | −16 | −5
4 | CCN(/[N+]([O-])=N/O[C@@H]1CCN(C(=O)NC(C)(C)C)C1)C(C)(C)C [Example 59, O^2-[(3R)-1-(tert-butylcarbamoyl)pyrrolidin-3-yl]1-(N-tert-butyl-N-ethylamino)diazen-1-ium-1,2-diolate] | −17 | −16 | −15 | −19 | −18 | −17
5 | CCN(/[N+]([O-])=N/OC1CCN(C(=O)OC(C)(C)C)CC1)C(C)(C)C [Example 6, O^2-[1-(tert-butoxycarbonyl)piperidin-4-yl]1-(N-tert-butyl-N-ethylamino)diazen-1-ium-1,2-diolate] | −19 | −17 | −15 | −25 | −16 | −9
6 | CN(/[N+]([O-])=N/O[C@@H]1CCN(Cc2ccccc2)C1)C(C)(C)C [Example 28, O^2-[(3R)-1-benzylpyrrolidin-3-yl]1-(N-tert-butyl-N-methylamino)diazen-1-ium-1,2-diolate] | −12 | −10 | −5 | −21 | −14 | −7
7 | CCN(/[N+]([O-])=N/OC1CCN(c2ccc(C#N)cn2)CC1)C(C)(C)C [Example 48, O^2-[1-(5-cyanopyridin-2-yl)piperidin-4-yl]1-(N-tert-butyl-N-ethylamino)diazen-1-ium-1,2-diolate] | −17 | −16 | −15 | −16 | −12 | −11
